According to PubChem BioAssay (NCI):
Where “and” joins values, the source holds several entries; their conditions need not be identical. Identical values can stand only once.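 All cell lines were grown in 96-well plates and treated with compound for 48 hours. GI50: concentration for 50% inhibition of growth. Definition used: TGI = concentration required for complete inhibition of growth.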

Key:
Assay in all cases: growth of human tumour cells (NCI), 48 h
UO-31 renal = tested on: UO-31 renal
RXF 393 renal = tested on: RXF 393 renal
OVCAR-3 ovarian = tested on: OVCAR-3 ovarian
HL-60(TB) leukemia = tested on: HL-60(TB) leukemia
DU-145 prostate = tested on: DU-145 prostate
SK-MEL-2 melanoma = tested on: SK-MEL-2 melanoma
BT-549 breast = tested on: BT-549 breast
OVCAR-4 ovarian = tested on: OVCAR-4 ovarian
OVCAR-5 ovarian = tested on: OVCAR-5 ovarian
TK-10 renal = tested on: TK-10 renal

O=C(O)C1OC1(c1cccc(Cl)c1)c1ccccc1Cl (stereo unspecified)
TGI (UO-31 renal): 58.5 µM | TGI (RXF 393 renal): 82.1 µM | TGI (OVCAR-3 ovarian): 46.1 µM | TGI (HL-60(TB) leukemia): 55.2 µM | TGI (DU-145 prostate): 77.5 µM | TGI (SK-MEL-2 melanoma): 31.2 µM | TGI (BT-549 breast): 39 µM | TGI (OVCAR-4 ovarian): > 100 µM | TGI (OVCAR-5 ovarian): > 100 µM | TGI (TK-10 renal): > 100 µM

CC1(N)CCN(c2cccnc2NC(=O)c2nc(-c3ncccc3C(F)(F)F)cnc2N)CC1
GI50 (UO-31 renal): 16.6 µM | TGI (UO-31 renal): > 100 µM | GI50 (RXF 393 renal): 10.1 µM | TGI (RXF 393 renal): 32.4 µM | GI50 (OVCAR-3 ovarian): 26.2 µM | TGI (OVCAR-3 ovarian): > 100 µM | GI50 (HL-60(TB) leukemia): 12.4 µM | TGI (HL-60(TB) leukemia): 37.8 µM | GI50 (DU-145 prostate): 35.3 µM | TGI (DU-145 prostate): > 100 µM | GI50 (SK-MEL-2 melanoma): 50.9 µM | TGI (SK-MEL-2 melanoma): > 100 µM | GI50 (BT-549 breast): 18.2 µM | TGI (BT-549 breast): > 100 µM | GI50 (OVCAR-4 ovarian): 21.5 µM | TGI (OVCAR-4 ovarian): > 100 µM | GI50 (OVCAR-5 ovarian): 20 µM | TGI (OVCAR-5 ovarian): > 100 µM | GI50 (TK-10 renal): 4.35 µM | TGI (TK-10 renal): > 100 µM

COc1ccc2c(c1)nnn1c3ncccc3c(N=O)c21
GI50 (UO-31 renal): 0.0757 µM and 0.347 µM | TGI (UO-31 renal): 0.732 µM and 4.64 µM | GI50 (RXF 393 renal): 0.308 µM and 1.96 µM | TGI (RXF 393 renal): 3.14 µM and 10.9 µM | GI50 (OVCAR-3 ovarian): 1.11 µM and 2.41 µM | TGI (OVCAR-3 ovarian): 5.18 µM and 7.68 µM | GI50 (HL-60(TB) leukemia): 0.0433 µM and 0.359 µM | GI50 (DU-145 prostate): 1.82 µM and 2.38 µM | TGI (DU-145 prostate): 13 µM and 8.09 µM | GI50 (SK-MEL-2 melanoma): 2.18 µM and 4.29 µM | TGI (SK-MEL-2 melanoma): 10.3 µM and > 100 µM | GI50 (BT-549 breast): 5.06 µM and 1.46 µM | TGI (BT-549 breast): 16.3 µM and 4.68 µM | GI50 (OVCAR-4 ovarian): 1.29 µM and 3.11 µM | TGI (OVCAR-4 ovarian): 16.6 µM and > 100 µM | GI50 (OVCAR-5 ovarian): 8.02 µM and 4.57 µM | TGI (OVCAR-5 ovarian): 23.2 µM and > 100 µM | GI50 (TK-10 renal): 5.08 µM | TGI (TK-10 renal): 19.2 µM

C=C1/C(=C\C=C2/CCC[C@]3(C)[C@@H]([C@H](C)CCCC(C)(C)O)CC[C@@H]23)C[C@@H](OC(=O)CBr)C[C@@H]1O
GI50 (UO-31 renal): 0.155 µM | TGI (UO-31 renal): 0.292 µM | GI50 (RXF 393 renal): 2.6 µM | TGI (RXF 393 renal): 7.41 µM | GI50 (OVCAR-3 ovarian): 0.395 µM | TGI (OVCAR-3 ovarian): 1.23 µM | GI50 (HL-60(TB) leukemia): 0.3 µM | TGI (HL-60(TB) leukemia): 1.09 µM | GI50 (DU-145 prostate): 12.4 µM | TGI (DU-145 prostate): 26.6 µM | GI50 (SK-MEL-2 melanoma): 9.75 µM | TGI (SK-MEL-2 melanoma): 28.6 µM | GI50 (BT-549 breast): 1.96 µM | TGI (BT-549 breast): 4.36 µM | GI50 (OVCAR-4 ovarian): 0.329 µM | TGI (OVCAR-4 ovarian): 1.6 µM | GI50 (OVCAR-5 ovarian): 1.55 µM | TGI (OVCAR-5 ovarian): 19.3 µM | GI50 (TK-10 renal): 6.88 µM | TGI (TK-10 renal): 21.6 µM

COc1cc(Nc2c(C#N)cnc3cc(OCCCN4CCN(C)CC4)c(OC)cc23)c(Cl)cc1Cl
GI50 (UO-31 renal): 0.687 µM | TGI (UO-31 renal): 7.75 µM | GI50 (RXF 393 renal): 0.85 µM | TGI (RXF 393 renal): 6.02 µM | GI50 (OVCAR-3 ovarian): 2.78 µM | TGI (OVCAR-3 ovarian): 14.4 µM | GI50 (HL-60(TB) leukemia): 1.59 µM | TGI (HL-60(TB) leukemia): 3.63 µM | GI50 (DU-145 prostate): 1.19 µM | TGI (DU-145 prostate): 14.6 µM | GI50 (SK-MEL-2 melanoma): 2.97 µM | TGI (SK-MEL-2 melanoma): 8.67 µM | GI50 (BT-549 breast): 6.78 µM | TGI (BT-549 breast): 18.3 µM | GI50 (OVCAR-4 ovarian): 4.6 µM | TGI (OVCAR-4 ovarian): 21 µM | GI50 (OVCAR-5 ovarian): 1.19 µM | TGI (OVCAR-5 ovarian): 16.2 µM | GI50 (TK-10 renal): 0.469 µM | TGI (TK-10 renal): 11.3 µM

COc1cc2oc3cc(=O)cc4oc(-c5ccccc5)cc(c2c2c1CCC(c1ccccc1)O2)c43 (stereo unspecified)
TGI (UO-31 renal): > 100 µM | TGI (RXF 393 renal): > 100 µM | TGI (OVCAR-3 ovarian): 77.6 µM | TGI (HL-60(TB) leukemia): 62.7 µM | TGI (DU-145 prostate): > 100 µM | TGI (SK-MEL-2 melanoma): > 100 µM | TGI (BT-549 breast): > 100 µM | TGI (OVCAR-4 ovarian): > 100 µM | TGI (OVCAR-5 ovarian): > 100 µM | TGI (TK-10 renal): 83.4 µM

COc1cc2c3c(n(CCCCN)c(=O)c2cc1OC)-c1cc2c(cc1C3=O)OCO2
GI50 (UO-31 renal): 2.97 µM | TGI (UO-31 renal): 12 µM | GI50 (RXF 393 renal): 1.47 µM | TGI (RXF 393 renal): 5.72 µM | GI50 (OVCAR-3 ovarian): 1.01 µM | TGI (OVCAR-3 ovarian): 2.67 µM | GI50 (HL-60(TB) leukemia): 1.88 µM | TGI (HL-60(TB) leukemia): 15.4 µM | GI50 (DU-145 prostate): 0.147 µM | TGI (DU-145 prostate): 1.03 µM | GI50 (SK-MEL-2 melanoma): 6.3 µM | TGI (SK-MEL-2 melanoma): 18 µM | GI50 (BT-549 breast): 1.17 µM | TGI (BT-549 breast): 4.84 µM | GI50 (OVCAR-4 ovarian): 0.719 µM | TGI (OVCAR-4 ovarian): 4.66 µM | GI50 (OVCAR-5 ovarian): 4.97 µM | TGI (OVCAR-5 ovarian): 12.3 µM | GI50 (TK-10 renal): 3.84 µM | TGI (TK-10 renal): 8.48 µM

Cc1ccc(-c2nc(C#N)c(S(=O)(=O)n3nc(C)cc3N)o2)cc1
GI50 (UO-31 renal): 1.74 µM | TGI (UO-31 renal): 3.33 µM | GI50 (RXF 393 renal): 1.87 µM | TGI (RXF 393 renal): 3.56 µM | GI50 (OVCAR-3 ovarian): 2.08 µM | TGI (OVCAR-3 ovarian): 3.73 µM | GI50 (HL-60(TB) leukemia): 2 µM | TGI (HL-60(TB) leukemia): 5.42 µM | GI50 (DU-145 prostate): 7.8 µM | TGI (DU-145 prostate): 20.2 µM | GI50 (SK-MEL-2 melanoma): 15 µM | TGI (SK-MEL-2 melanoma): 32.3 µM | GI50 (BT-549 breast): 3.85 µM | TGI (BT-549 breast): 14.8 µM | GI50 (OVCAR-4 ovarian): 4.26 µM | TGI (OVCAR-4 ovarian): 20.7 µM | GI50 (OVCAR-5 ovarian): 12.4 µM | TGI (OVCAR-5 ovarian): 27.5 µM | GI50 (TK-10 renal): 1.97 µM | TGI (TK-10 renal): 3.6 µM

COc1cc(NC(C)CCCN)c2ncccc2c1 (stereo unspecified)
GI50 (UO-31 renal): 15.2 µM and 42.9 µM | TGI (UO-31 renal): 57.8 µM and > 100 µM | GI50 (RXF 393 renal): 17.1 µM and 37.4 µM | TGI (RXF 393 renal): > 79.6 µM and 100 µM | TGI (OVCAR-3 ovarian): 84.2 µM and > 100 µM | TGI (HL-60(TB) leukemia): > 37.3 µM and 28.9 µM | TGI (DU-145 prostate): > 100 µM | TGI (SK-MEL-2 melanoma): > 89.3 µM | TGI (BT-549 breast): > 100 µM | TGI (OVCAR-4 ovarian): > 100 µM | TGI (OVCAR-5 ovarian): > 100 µM | TGI (TK-10 renal): > 100 µM

COc1ccc2c(=O)cc(-c3ccncc3)oc2c1OC
TGI (UO-31 renal): 67.6 µM | TGI (RXF 393 renal): 69.6 µM | TGI (OVCAR-3 ovarian): 64.8 µM | TGI (HL-60(TB) leukemia): 50.6 µM | TGI (DU-145 prostate): > 100 µM | TGI (SK-MEL-2 melanoma): 68.2 µM | TGI (BT-549 breast): 98.4 µM | TGI (OVCAR-4 ovarian): > 100 µM | TGI (OVCAR-5 ovarian): > 100 µM | TGI (TK-10 renal): > 100 µM

COC(=O)[C@@]12OC[C@]34[C@H]([C@@H](O)[C@@H]1O)[C@@]1(C)[C@H](O)C(=O)C=C(C)[C@@H]1C[C@H]3OC(=O)C(OC(C)=O)[C@@H]24 (stereo partly specified)
GI50 (UO-31 renal): 0.113 µM | TGI (UO-31 renal): 0.449 µM | GI50 (RXF 393 renal): 0.0253 µM | TGI (RXF 393 renal): 0.0673 µM | GI50 (OVCAR-3 ovarian): 0.0248 µM | TGI (OVCAR-3 ovarian): 0.0714 µM | GI50 (HL-60(TB) leukemia): 0.0119 µM | TGI (HL-60(TB) leukemia): 0.0315 µM | GI50 (DU-145 prostate): 0.0445 µM | TGI (DU-145 prostate): 0.206 µM | GI50 (SK-MEL-2 melanoma): 0.0574 µM | TGI (SK-MEL-2 melanoma): 0.319 µM | GI50 (BT-549 breast): 0.0182 µM | TGI (BT-549 breast): 0.0561 µM | GI50 (OVCAR-4 ovarian): 0.0398 µM | TGI (OVCAR-4 ovarian): 0.272 µM | GI50 (OVCAR-5 ovarian): 0.069 µM | TGI (OVCAR-5 ovarian): 0.41 µM | GI50 (TK-10 renal): 0.0374 µM | TGI (TK-10 renal): 0.197 µM
